For assay [1], the system named is primary mouse keratinocytes. The assay can be described thus: Filaggrin expression in differentiating keratinocytes (Western blot of cytoskeletal fraction). The format is cell-based. The following applies: 50, 150 and 300 nM; 0.12 mM Ca2+. The protocol: Primary mouse keratinocytes were cultured in 0.05 mM Ca^+2 MEM and differentiation was induced by elevating Ca^+2 concentrations to 0.12 mM. Keratinocytes were treated with either PBS (control) or different concentrations (50, 150 and 300 nM) of troglitazone, a PPARγ activator. The cells were lysed and the cytoskeletal fraction was subjected to SDS-PAGE and blotted with anti-filaggrin antibody.
A general note: In western blotting, separated proteins are transferred to a membrane and probed.

The subject of assay [2] is damaged skin from diabetic (STZ injected) C57BL/6J mice. The assay can be described thus: Reconstruction of the hypodermis layer in damaged diabetic skin (H&E histology). Format: in vivo. To be noted: 7-9 days treatment; insulin 0.1 unit + peptide 1 μM, or adipsin 1 μM. The procedure: Damaged skin from diabetic (STZ injected) C57BL/6J mice was treated with either PBS (control); a mixture of insulin (0.1 unit) and the N-myristoylated PKCα pseudosubstrate peptide of SEQ ID NO: 1 (1 μM); or adipsin (1 μM) for 7-9 days. Skin biopsies were then collected and embedded in paraffin, and histological sections were performed and stained with H&E. The sections were analyzed for presence of the hypodermis layer presented as a continuous layer of adipocytes, and the percent of total animals per each group with fully reconstituted hypodermis is shown in FIGS. 11A-11B.

For assay [3], the system named is damaged skin of diabetic (STZ injected) C57BL/6J mice. Kind of assay: Inflammatory response in damaged skin of diabetic mice (H&E histology, abscess formation and leukocytosis). The format is in vivo. The following applies: adiponectin 0.1 μg/ml for 7 days; non-treated control 90%; severe = both abscess and leukocytosis. The procedure: Damaged skin of diabetic (STZ injected) C57BL/6J mice was treated with either PBS (control) or adiponectin (0.1 μg/ml) for 7 days (total n=18). Thereafter, skin biopsies were collected, embedded in paraffin, and analyzed for inflammation by H&E histological staining. Inflammation was graded by abscess formation and excessive leukocytosis in the skin and proximal blood vessels, and severe inflammation was considered when both abscess and leukocytosis were apparent.
In the next step, damaged skin from diabetic (STZ injected) C57BL/6J mice was treated with either PBS (control); a mixture of insulin (0.1 unit) and the N-myristoylated PKCα pseudosubstrate peptide of SEQ ID NO: 1 (1 μM); or Copolymer-1 (Teva Pharmaceutical Industries, Israel), (55 μg/ml) for 9 days (n=6 per each group). […] Thereafter, skin biopsies were collected, embedded in paraffin, and analyzed for inflammation by H&E histological staining. Inflammation was graded as described above.

Consider `Cc1c(C)c2c(c(C)c1O)CCC(C)(COc1ccc(CC3SC(=O)NC3=O)cc1)O2` (stereo not drawn) [troglitazone, 5-(4-(6-hydroxy-2,5,7,8-tetramethylchroman-2-yl-methoxy)benzyl)-2,4-thiazolidinedione], for which, in assay [1], the “filaggrin expression (terminal differentiation marker, FIG. 12)” value is listed as “upregulation of filaggrin expression”.

With “adipsin: adipokine, complement factor D secreted by adipocytes”, the “reconstitution of the hypodermis layer (FIGS. 11A-11B)” value in assay [2] is listed as “can reconstruct the hypodermal subcutaneous layer”.

B1: adiponectin: adipokine, a bioactive molecule secreted by adipocytes (protein, UniProt Q15848 19-244, looked up)
Adiponectin: ETTTQGPGVLLPLPKGACTGWMAGIPGHPGHNGAPGRDGRDGTPGEKGEKGDPGLIGPKGDIGETGVPGAEGPRGFPGIQGRKGEPGEGAYVYRSAFSVGLETYVTIPNMPIRFTKIFYNQQNHYDGSTGKFHCNIPGLYYFAYHITVYMKDVKVSLFKKDKAMLFTYDQYQENNVDQASGSVLLHLEVGDQVWLQVYGEGERNGLYADNDNDSTFTGFLLYHDTN
For the molecule B1, the “percent of animals exhibiting severe inflammation of the skin” value in assay [3] is given as 20%.
